Test results as given in patent publication US9731035B2, “Method of imaging osteoarthritis using a folate conjugate” (Purdue Research Foundation, priority 2005, dated 2017).
*1 amine or outer side, *2 acyl side, *3 side chain or, on linkers, in order; H or OH if unused. Where a SMILES comes first, the peptide text is derived from it. The star is where a group is joined. X1 = COc1ccc2c(c1)c(CC(=O)OCCS*)c(C)n2C(=O)c1ccc(Cl)cc1; Pteroyl = Nc1nc2ncc(CNc3ccc(C(=O)*)cc3)nc2c(=O)[nH]1; γGlu = O=C(O)[CH](CCC(=O)[*:2])N[*:1]

How the values were obtained:
[1] = target: T1, folate receptors on human peripheral blood monocytes (Homo sapiens, UniProt P14207); assay: Folate dye conjugate binding to human peripheral blood monocytes, flow cytometry; conditions: for percentage of human peripheral blood monocytes bound: CD11b+ monocytes, FIG. 2; for binding to human peripheral blood monocytes: FIG. 1
T1 construct: endogenous in cells; host or cells: human peripheral blood monocytes (PBMC isolated by Ficoll-Paque)
Method: An 8-10 ml sample of whole blood was collected in EDTA anticoagulant tubes. PBMCs were isolated from the blood samples using Ficoll-Paque Plus (Amersham Biosciences, Piscataway, N.J.) and by following the manufacture's provided protocol. Briefly, the blood sample was diluted 50:50 with a balanced salt solution (described below). 8 mL of Ficoll-Paque Plus was added to a 50 ml conical centrifuge tube. The diluted blood sample (approximately 16-20 ml) was layered on top of the Ficoll gradient. The sample was centrifuged at 400×g for 30 minutes at room temperature. Following centrifugation, the plasma layer (top clear layer) was removed using a pipette leaving the lymphocyte/monocyte layer undisturbed. The hazy cell layer immediately below the plasma layer was removed, being careful to remove the entire cell interface but a minimum amount of the Ficoll layer. The isolated cells were put into a sterile 50 ml conical centrifuge tube and diluted 3-fold (vol/vol) using the balanced salt solution. The resulting cell solution was gently mixed and centrifuged at 100×g for 10 minutes at room temperature to pellet the cells. The supernatant was removed and the cells were resuspended in folate deficient RPMI 1640 medium supplemented with 10% heat-inactivated FBS, penicillin (100 IU/ml) and streptomycin (100 μg/ml). Cells were seeded in microcentrifuge tubes or microscopy chambers as dictated by the experiment.
(§1) All binding experiments were conducted on ice or in a 4° C. cold room unless indicated otherwise. Folate conjugate and ^3H-folic acid binding studies were performed by incubating cells with a 100 nM concentration of the indicated folate dye conjugate for 45 minutes. […] An acidic wash to strip cell-surface bound folate conjugates was performed on indicated samples by washing the cell sample with a 150 mM NaCl solution adjusted to pH 3.5 with acetic acid. All antibody labeling was optimized by titration. Optimal labeling was most often achieved with a 1/1000-1/10,000 dilution of the manufacture's stock antibody solution. After cells were labeled with folate dye conjugates and/or antibodies, the samples were washed twice with PBS to remove non-specific binding. Analysis of folate conjugate binding and/or antibody binding was analyzed by confocal microscopy or by flow cytometry (FCS Calibur, BD, Franklin Lakes, N.J.). After washing ^3H-folic acid samples to remove non-specific binding, cells were dissolved in 0.25M NaOH and radioactivity was counted on a scintillation counter.

[2] = system: folate receptors on peripheral blood monocytes of horses; assay: Folate-FITC binding to peripheral blood monocytes from horses, flow cytometry; set-up: species or system horse; conditions: with/without 100-fold excess folic acid, FIG. 5
Method: (§2) An 8-10 ml sample of whole blood was collected in EDTA anticoagulant tubes. PBMCs were isolated from the blood samples using Ficoll-Paque Plus (Amersham Biosciences, Piscataway, N.J.) and by following the manufacture's provided protocol. Briefly, the blood sample was diluted 50:50 with a balanced salt solution (described below). 8 mL of Ficoll-Paque Plus was added to a 50 ml conical centrifuge tube. The diluted blood sample (approximately 16-20 ml) was layered on top of the Ficoll gradient. The sample was centrifuged at 400×g for 30 minutes at room temperature. Following centrifugation, the plasma layer (top clear layer) was removed using a pipette leaving the lymphocyte/monocyte layer undisturbed. The hazy cell layer immediately below the plasma layer was removed, being careful to remove the entire cell interface but a minimum amount of the Ficoll layer. […]
(§3) All binding experiments were conducted on ice or in a 4° C. cold room unless indicated otherwise. […] Analysis of folate conjugate binding and/or antibody binding was analyzed by confocal microscopy or by flow cytometry (FCS Calibur, BD, Franklin Lakes, N.J.). After washing ^3H-folic acid samples to remove non-specific binding, cells were dissolved in 0.25M NaOH and radioactivity was counted on a scintillation counter.

[3] = system: folate receptors on peripheral blood monocytes of dogs; assay: Folate dye conjugate binding to peripheral blood monocytes from dogs, flow cytometry; set-up: species or system dog; conditions: with/without 100-fold excess folic acid, FIG. 5, FIG. 6
Method: as §2, §3

[4] = system: folate receptors on white blood cells from dogs; assay: 3H-folic acid binding to white blood cells from dogs; set-up: species or system dog; conditions: with/without 100-fold excess folic acid, FIG. 4
Method: as §1

[5] = target: T2, folate receptors on white blood cells from mice (Mus musculus, UniProt Q05685); assay: 3H-folic acid binding to white blood cells from mice; conditions: with/without 100-fold excess folic acid, FIG. 4
T2 construct: endogenous in cells; host or cells: mouse white blood cells
Method: as §1

[6] = system: adjuvant-induced arthritis; assay: Adjuvant-induced arthritis in rats, paw swelling; type: in vivo, rat
Method: Arthritis was induced in 150-200 g female Lewis rats (Harlan, Indianapolis, Ind.), n=2-5/dose group. Briefly, 0.5 mg of heat-killed […] butericum, suspended in mineral oil (5 mg/ml), was injected on day 0 into the left hind foot of rats following anesthesia with ketamine and xylazine. All treated animals developed arthritis, as evidenced by dramatic swelling in the injected paw, progressive swelling in all noninjected limbs due to the systemic progression of arthritis, and radiographic analysis of affected limbs. All rats were maintained on a folate-deficient diet (DYETS, Inc., Bethlehem, Pa.) for 3 weeks prior to administration of therapeutic agents in order to lower serum folate levels to physiologically relevant concentrations. Control rats were also maintained on a folate-deficient diet but were not induced to develop arthritis.
The protocol described in Example 32 for arthritis induction was followed. The efficacy of folate-flumethasone (50 nmoles/kg/day) and folate-indomethacin (100 or 250 nmoles/kg/day) against adjuvant-induced arthritis in rats was investigated. Rats were injected intraperitoneally with either saline (control rats) or folate-flumethasone (50 nmoles/kg/day) or folate-indomethacin (100 or 250 nmoles/kg/day) starting at day 4. The sudden increase in swelling of the adjuvant-injected foot is due to influx of neutrophils which have no folate receptors. […]

[7] = absence of unlabeled folic acid
[8] = presence of a 100-fold excess of unlabeled folic acid

T1 sequence (P14207 17-230): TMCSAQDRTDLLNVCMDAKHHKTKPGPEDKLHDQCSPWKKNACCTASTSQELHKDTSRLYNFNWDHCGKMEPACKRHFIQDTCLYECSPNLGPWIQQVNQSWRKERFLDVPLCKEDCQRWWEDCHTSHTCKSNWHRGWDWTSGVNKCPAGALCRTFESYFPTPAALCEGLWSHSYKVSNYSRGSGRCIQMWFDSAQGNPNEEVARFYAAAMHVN
T2 sequence (Q05685 21-227): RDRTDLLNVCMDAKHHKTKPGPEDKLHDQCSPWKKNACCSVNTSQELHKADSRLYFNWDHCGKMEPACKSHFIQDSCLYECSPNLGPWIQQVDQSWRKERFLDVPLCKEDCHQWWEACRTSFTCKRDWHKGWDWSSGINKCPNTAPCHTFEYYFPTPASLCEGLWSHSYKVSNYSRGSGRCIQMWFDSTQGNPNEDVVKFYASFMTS

Nc1nc2ncc(CNc3ccc(C(=O)NC(CCC(=O)NCCNC(=S)Nc4ccc(C(=O)O)c(-c5c6ccc(=O)cc-6oc6cc(O)ccc56)c4)C(=O)O)cc3)nc2c(=O)[nH]1 (stereo not drawn) [folate-FITC]
percentage of human peripheral blood monocytes bound [1, 7]: 45.9% | percentage of human peripheral blood monocytes bound [1, 8]: 2% | binding to human peripheral blood monocytes [1, 7]: bound | folate receptor detection on human peripheral blood monocytes ([1]; healthy humans and patients with rheumatoid arthritis, osteoarthritis, fibromyalgia, FIG. 8): detectable | folate receptor detection on human peripheral blood monocytes ([1]; patients with rheumatoid arthritis over the course of therapy, FIG. 10): detectable | binding to human peripheral blood monocytes [1, 8]: competed | folate receptor detection on peripheral blood monocytes [2]: detectable | folate receptor detection on peripheral blood monocytes [3]: detectable

Nc1nc2ncc(CNc3ccc(C(=O)N[C@@H](CCC(=O)O)C(=O)O)cc3)nc2c(=O)[nH]1 [^3H-Folic acid]
folate receptor detection on white blood cells [4]: detectable | folate receptor detection on white blood cells [5]: detectable

COc1ccc2c(c1)c(CC(=O)OCCSSCC(NC(=O)C(CC(=O)O)NC(=O)C(CC(=O)O)NC(=O)C(CCCNC(=N)N)NC(=O)C(CC(=O)O)NC(=O)CCC(NC(=O)c1ccc(NCc3cnc4nc(N)[nH]c(=O)c4n3)cc1)C(=O)O)C(=O)O)c(C)n2C(=O)c1ccc(Cl)cc1 (stereo not drawn) [folate-indomethacin] ({Pteroyl-γGlu}-DRDDC(X1)-OH; configuration not given here)
effect on paw swelling (left foot dimensions) after about 7 days ([6]; 100 or 250 nmoles/kg/day intraperitoneally starting at day 4, FIG. 9): potent therapeutic effects

CC1CC2C3CC(F)C4=CC(=O)C=CC4(C)C3(F)C(O)CC2(C)C1(O)C(=O)COC(=O)OCCSSCC(NC(=O)CCC(NC(=O)c1ccc(NCc2cnc3nc(N)[nH]c(=O)c3n2)cc1)C(=O)O)C(=O)O (stereo not drawn) [folate-flumethasone]
effect on paw swelling (left foot dimensions) after about 7 days ([6]; 50 nmoles/kg/day intraperitoneally starting at day 4, FIG. 9): potent therapeutic effects
